Assay results: patent US9511058B2, “Methods for using carboxamide, sulfonamide and amine compounds” (Rigel Pharmaceuticals, Inc., priority 2010, dated 2016)

Biological target: AMPK
Assay: AMPK activation, enzyme-linked immunosorbent assay
Assay type: biochemical
[1] = compounds of Table 5 (Table 10)

EC50 [1] | Structure (SMILES) | other results
< 1 µM | CC(C)S(=O)(=O)N1CCC(NC(=O)c2ccc(OC3CCN(c4ccc(C(F)(F)F)cc4)CC3)c(F)c2)CC1 [5-34, 3-fluoro-N-(1-(isopropylsulfonyl)piperidin-4-yl)-4-(1-(4-(trifluoromethyl)phenyl)piperidin-4-yloxy)benzamide] | –
< 1 µM | O=C(NC1CCN(Cc2ccccc2)CC1)c1ccc(OC2CCN(Cc3ccncc3)CC2)c(Cl)c1 [5-6, N-(1-benzylpiperidin-4-yl)-3-chloro-4-(1-(pyridin-4-ylmethyl)piperidin-4-yloxy)benzamide] | –
< 1 µM | O=C(NC1CCN(Cc2ccccc2)CC1)c1cccc(OC2CCN(c3ccccn3)CC2)c1 [5-86, N-(1-benzylpiperidin-4-yl)-3-(1-(pyridin-2-yl)piperidin-4-yloxy)benzamide] | –
< 1 µM | COc1cc(C(=O)NC2CCN(Cc3ccccc3)CC2)ccc1OC1CCN(CCCc2ccccc2)CC1 [5-7, N-(1-benzylpiperidin-4-yl)-3-methoxy-4-(1-(3-phenylpropyl)piperidin-4-yloxy)benzamide] | –
10 to 20 µM | Cc1ccc(CN2CCC(Oc3ccc(C(=O)NCCCN4CCOCC4)cc3)CC2)cc1 [5-104, 4-(1-(4-methylbenzyl)piperidin-4-yloxy)-N-(3-morpholinopropyl)benzamide] | –
< 1 µM | CC(C)(C)c1ccc(CN2CCC(Oc3ccc(C(=O)NC4CCN(c5ccccc5)CC4)cc3F)CC2)cc1 [5-36, 4-(1-(4-tert-butylbenzyl)piperidin-4-yloxy)-3-fluoro-N-(1-phenylpiperidin-4-yl)benzamide] | –
< 1 µM | O=C(NC1CCN(Cc2ccccc2)CC1)c1ccc(OC2CCN(Cc3ccc(OC(F)(F)F)cc3)CC2)c(Cl)c1 [5-54, N-(1-benzylpiperidin-4-yl)-3-chloro-4-(1-(4-(trifluoromethoxy)benzyl)piperidin-4-yloxy)benzamide] | –
< 1 µM | O=C(NC1CCN(Cc2ccc(F)cc2)CC1)c1ccc(OC2CCN(Cc3ccc(Cl)cc3)CC2)c(Cl)c1 [5-66, 3-chloro-4-(1-(4-chlorobenzyl)piperidin-4-yloxy)-N-(1-(4-fluorobenzyl)piperidin-4-yl)benzamide] | –
1 to 10 µM | CC(C)(C)OC(=O)N1CCC(Oc2ccc(C(=O)NC3CCN(Cc4ccccc4)CC3)cc2F)CC1 [5-92, tert-butyl 4-(4-(1-benzylpiperidin-4-ylcarbamoyl)-2-fluorophenoxy)piperidine-1-carboxylate] | –
< 1 µM | O=C(NC1CCN(C(=O)c2ccncc2)CC1)c1ccc(OC2CCN(c3ccc(C(F)(F)F)cc3)CC2)c(F)c1 [5-40, 3-fluoro-N-(1-isonicotinoylpiperidin-4-yl)-4-(1-(4-(trifluoromethyl)phenyl)piperidin-4-yloxy)benzamide] | –
< 1 µM | O=C(NC1CCN(Cc2ccccc2)CC1)c1ccc(OC2CCN(Cc3ccc(F)c(F)c3)CC2)c(F)c1 [5-69, N-(1-benzylpiperidin-4-yl)-4-(1-(3,4-difluorobenzyl)piperidin-4-yloxy)-3-fluorobenzamide] | –
< 1 µM | N#Cc1ccc(N2CCC(Oc3ccc(C(=O)NC4CCN(Cc5ccccc5)CC4)c(Cl)c3)CC2)cc1 [5-49, N-(1-benzylpiperidin-4-yl)-2-chloro-4-(1-(4-cyanophenyl)piperidin-4-yloxy)benzamide] | –
1 to 10 µM | COc1cc(C(=O)NC2CCN(Cc3ccccc3)CC2)ccc1OC1CCN(c2cccs2)CC1 [5-8, N-(1-benzylpiperidin-4-yl)-3-methoxy-4-(1-(thiophen-2-yl)piperidin-4-yloxy)benzamide] | –

Further lines, the compound ahead of its results:

Structure (SMILES) | EC50 [1] | other results
CN(C(=O)c1cc2cc(OC3CCN(c4ccc(C(F)(F)F)cc4)CC3)ccc2o1)C1CCN(Cc2ccncc2)CC1 [1-104, N-methyl-N-(1-(pyridin-4-ylmethyl)piperidin-4-yl)-5-(1-(4-(trifluoromethyl)phenyl)piperidin-4-yloxy)benzofuran-2-carboxamide] | – | EC50 (compounds of Table 1 (Table 6)): 0.1 to 0.5 µM
N#Cc1ccc(CN2CCC(NC(=O)c3nc4ccc(OC5CCN(c6ccc(C(F)(F)F)cc6)CC5)cc4o3)CC2)cc1 [3-2, N-(1-(4-cyanobenzyl)piperidin-4-yl)-6-(1-(4-(trifluoromethyl)phenyl)piperidin-4-yloxy)benzo[d]oxazole-2-carboxamide] | – | EC50 (compounds of Table 3 (Table 8)): < 0.1 µM
O=C(NC1CCN(Cc2cccnc2)CC1)c1cncc(OC2CCN(c3ccc(C(F)(F)F)cc3)CC2)c1 [1-18, N-(1-(pyridin-3-ylmethyl)piperidin-4-yl)-5-(1-(4-(trifluoromethyl)phenyl)piperidin-4-yloxy)nicotinamide] | – | EC50 (compounds of Table 1 (Table 6)): < 0.1 µM
N#Cc1ccc(CN2CCC(NC(=O)c3ccc(OC4CCN(c5ccc(C#N)cc5)CC4)cn3)CC2)cc1 [1-2, N-(1-(4-cyanobenzyl)piperidin-4-yl)-5-(1-(4-cyanophenyl)piperidin-4-yloxy)picolinamide] | – | EC50 (compounds of Table 1 (Table 6)): < 0.1 µM
N#Cc1ccc(CN2CCC(NC(=O)c3cnc(OC4CCN(Cc5ccc(C(F)(F)F)cc5)CC4)s3)CC2)cc1 [3-25, N-(1-(4-cyanobenzyl)piperidin-4-yl)-2-(1-(4-(trifluoromethyl)benzyl)piperidin-4-yloxy)thiazole-5-carboxamide] | – | EC50 (compounds of Table 3 (Table 8)): < 0.1 µM
N#Cc1ccccc1CN1CCC(NC(=O)c2cc3ccc(OC4CCN(c5ccc(C(F)(F)F)cc5)CC4)cc3o2)CC1 [1-98, N-(1-(2-cyanobenzyl)piperidin-4-yl)-6-(1-(4-(trifluoromethyl)phenyl)piperidin-4-yloxy)benzofuran-2-carboxamide] | – | EC50 (compounds of Table 1 (Table 6)): < 0.1 µM
O=C(NC1CCN(Cc2ccc(C(F)(F)F)cc2)CC1)c1ccc2c(c1)CN(Cc1ccc(F)cc1)CC2 [3-36, 2-(4-fluorobenzyl)-N-(1-(4-(trifluoromethyl)benzyl)piperidin-4-yl)-1,2,3,4-tetrahydroisoquinoline-7-carboxamide] | – | EC50 (compounds of Table 3 (Table 8)): 0.1 to 1 µM
N#Cc1ccc(CN2CCc3ccc(C(=O)NC4CCN(Cc5cccnc5)CC4)cc3C2)cc1 [3-38, 2-(4-cyanobenzyl)-N-(1-(pyridin-3-ylmethyl)piperidin-4-yl)-1,2,3,4-tetrahydroisoquinoline-7-carboxamide] | – | EC50 (compounds of Table 3 (Table 8)): < 0.1 µM
CC(C)(C)OC(=O)N1CC[C@@H](NC(=O)c2ccc(OC3CCN(c4ccc(C(F)(F)F)cc4)CC3)cn2)C1 [1-23, (R)-tert-butyl 3-(5-(1-(4-(trifluoromethyl)phenyl)piperidin-4-yloxy)picolinamido)pyrrolidine-1-carboxylate] | – | EC50 (compounds of Table 1 (Table 6)): 0.1 to 0.5 µM
N#Cc1ccc(CN2CCC(Oc3ccc4oc(C(=O)NC5CCN(Cc6ccccc6)CC5)cc4c3)CC2)cc1 [1-114, N-(1-benzylpiperidin-4-yl)-5-(1-(4-cyanobenzyl)piperidin-4-yloxy)benzofuran-2-carboxamide] | – | EC50 (compounds of Table 1 (Table 6)): 0.1 to 0.5 µM
N#Cc1ccc(CN2CCC(NC(=O)c3sc4cc(OC5CCN(c6ccc(C(F)(F)F)cc6)CC5)ccc4c3Cl)CC2)cc1 [1-154, 3-chloro-N-(1-(4-cyanobenzyl)piperidin-4-yl)-6-(1-(4-(trifluoromethyl)phenyl)piperidin-4-yloxy)benzo[b]thiophene-2-carboxamide] | – | EC50 (compounds of Table 1 (Table 6)): < 0.1 µM
N#Cc1ccc(CN2CCC(NC(=O)c3ccc(C(=O)N4CCN(Cc5ccc(Cl)cc5)CC4)cc3)CC2)cc1 [3-28, 4-(4-(4-chlorobenzyl)piperazine-1-carbonyl)-N-(1-(4-cyanobenzyl)piperidin-4-yl)benzamide] | – | EC50 (compounds of Table 3 (Table 8)): < 0.1 µM
N#Cc1ccc(CN2CCC(NC(=O)c3ccc4[nH]c5c(c4c3)CN(Cc3ccccc3)CC5)CC2)cc1 [2-4, 2-benzyl-N-(1-(4-cyanobenzyl)piperidin-4-yl)-2,3,4,5-tetrahydro-1H-pyrido[4,3-b]indole-8-carboxamide] | – | EC50 (compounds of Table 2 (Table 7)): 1 to 5 µM
